Assay results as given in patent publication US11518761B2, “CDPK1 inhibitors, compositions, and methods related thereto” (Vyera Pharmaceuticals, LLC, priority 2017, dated 2022).

target: T. gondii CDPK1 (tgCDPK1) (Toxoplasma gondii, UniProt Q9BJF5); assay: biochemical; settings: at least three independent replicates
Protocol: Certain of the compounds prepared as described above were assayed to determine their IC50 for inhibition of T. gondii CDPK1 (tgCDPK1). At least three independent replicates of the assay were conducted for each compound tested.

Chain of T. gondii CDPK1 (tgCDPK1) (Q9BJF5 1-507): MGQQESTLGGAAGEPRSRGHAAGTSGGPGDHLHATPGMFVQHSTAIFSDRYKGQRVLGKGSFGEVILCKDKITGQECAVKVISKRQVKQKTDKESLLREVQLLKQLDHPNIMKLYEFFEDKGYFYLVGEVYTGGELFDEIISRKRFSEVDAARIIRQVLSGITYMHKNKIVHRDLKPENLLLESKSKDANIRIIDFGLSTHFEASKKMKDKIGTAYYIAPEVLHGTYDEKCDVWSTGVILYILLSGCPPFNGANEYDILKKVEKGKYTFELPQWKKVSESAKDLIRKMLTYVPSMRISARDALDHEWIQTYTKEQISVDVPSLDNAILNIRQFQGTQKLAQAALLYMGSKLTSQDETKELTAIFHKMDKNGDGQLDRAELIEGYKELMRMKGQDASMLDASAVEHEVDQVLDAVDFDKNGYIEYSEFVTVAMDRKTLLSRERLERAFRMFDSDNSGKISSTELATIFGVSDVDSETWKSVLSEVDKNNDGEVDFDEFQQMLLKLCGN

Question: For Nc1ncnc2c1c(Oc1cc(C(F)(F)F)ccn1)nn2C1CC1 [Compound 77, 1-cyclopropyl-3-((4-(trifluoromethyl)pyridin-2-yl)oxy)-1H-pyrazolo[3,4-d]pyrimidin-4-amine], which IC50 is on record?
Answer: 16.5 nM

Question: Which IC50 does the source give for Nc1ncnc2c1c(Cc1cccc(Cl)c1)nn2[C@H]1C[C@@H](O)C1 [Compound 130, (cis)-3-(4-amino-3-(3-chlorobenzyl)-1H-pyrazolo[3,4-d]pyrimidin-1-yl)cyclobutan-1-ol] here?
Answer: 15.4 nM

Question: For Nc1ncnc2c1c(Cc1cccc(F)c1)nn2[C@H]1C[C@@H](O)C1 [Compound 132], which IC50 is on record?
Answer: 28.4 nM

Question: Which IC50 does the source give for Nc1ncnc2c1c(Oc1cccc(Cl)c1)nn2[C@H]1C[C@@H](O)C1 [Compound 152] here?
Answer: 27.3 nM

Question: Nc1ncnc2c1c(Oc1cccc(F)c1)nn2[C@H]1C[C@@H](O)C1 [Compound 153, (cis)-3-(4-ammo-3-(3-fluorophenoxy)-1H-pyrazolo[3,4-d]pyrimidin-1-yl)cyclobutan-1-ol] was tested. Which IC50 did it give?
Answer: 33.8 nM

Question: For Nc1ncnc2c1c(Cc1c[nH]c3ccc(F)cc13)nn2[C@H]1C[C@H](O)C1 [Compound 154, (trans)-3-(4-amino-3-((5-fluoro-1H-indol-3-yl)methyl)-1H-pyrazolo[3,4-d]pyrimidin-1-yl)cyclobutan-1-ol], which IC50 is on record?
Answer: 11.8 nM

Question: How did the IC50 turn out when Nc1ncnc2c1c(Oc1cccc(F)c1)nn2[C@H]1C[C@H](O)C1 [Compound 155, (trans)-3-(4-amino-3-(3-fluorophenoxy)-1H-pyrazolo[3,4-d]pyrimidin-1-yl)cyclobulan-1-ol] was run?
Answer: 38 nM

Question: Nc1ncnc2c1c(Oc1cc(Cl)ccn1)nn2[C@H]1C[C@H](F)C1 [Compound 158, 3-[(4-chloropyridin-2-yl)oxy]-1-[(trans)-3-fluorocyclobutyl]-l H-pyrazolo[3,4-d]pyrimidin-4-amine] was tested. Which IC50 did it give?
Answer: 11.4 nM

Question: Nc1ncnc2c1c(Oc1cccc(C(F)(F)F)c1)nn2[C@H]1C[C@H](F)C1 [Compound 166] was tested. Which IC50 did it give?
Answer: 28.9 nM

Question: Which IC50 does the source give for “(2-((4-amino-1-cyclopropyl-1H-pyrazolo[3,4-d]pyrimidin-3-yl)oxy)pyrimidin-4-yl)methanol [Compound 86]” here?
Answer: 29.6 nM
